Measured values: patent US6756359B2, “C12 modified erythromycin macrolides and ketolides having antibacterial activity” (Chiron Corporation, priority 2001, dated 2004)
Converted amounts (≈) assume the structure as drawn.

Legend:
Assay in all cases: Antibacterial activity in vitro, MIC by broth microdilution
H. influenzae Hain_49247 = type: cell-based, Haemophilus influenzae; conditions: Table 3, Strain ID L: H. influenzae Hain_49247; unit assumed
In short: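 Visible-growth inhibition defined the MIC, obtained by NCCLS broth microdilution at 35° C. over 18-24 hours with a final inoculum of 3×10^5–7×10^5 CFU/mL.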

E. coli Esco_25922 = type: cell-based; conditions: Table 3, Strain ID M: E. coli Esco_25922; unit assumed
In short: (§1)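 Broth microdilution per NCCLS in cation-adjusted Mueller-Hinton broth (S. pneumoniae: plus 2-5% lysed horse blood, 5-10% CO2), inoculum 3×10^5–7×10^5 CFU/mL, 2-fold serial drug dilutions, 35° C. for 18-24 hours. MIC taken as lowest concentration preventing visible growth.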

E. faecalis Enfa_29212 = type: cell-based; conditions: Table 3, Strain ID C: E. faecalis Enfa_29212
In short: as §1

[1] = test system: S. epidermidis Step_f50654 Pen S; type: cell-based; conditions: Table 3, Strain ID B: S. epidermidis Step_f50654 Pen S; unit assumed
In short: as §1

[2] = test system: S. epidermidis Step_14990; type: cell-based; conditions: Table 3, Strain ID A: S. epidermidis Step_14990; unit assumed
In short: as §1

S. pyogenes Stpy_8668 = type: cell-based; conditions: Table 3, Strain ID D: S. pyogenes Stpy_8668
In short: as §1

[3] = test system: S. pneumoniae Stpn_280-962 Pen S; type: cell-based, Streptococcus pneumoniae; conditions: Table 3, Strain ID G: S. pneumoniae Stpn_280-962 Pen S
In short: as §1

[4] = test system: S. pneumoniae Stpn_Mef 5654; type: cell-based, Streptococcus pneumoniae; conditions: Table 3, Strain ID J: S. pneumoniae Stpn_Mef 5654; unit assumed
In short: as §1

[5] = test system: S. pneumoniae Stpn_Erm S 4297; type: cell-based, Streptococcus pneumoniae; conditions: Table 3, Strain ID I: S. pneumoniae Stpn_Erm S 4297
In short: as §1

[6] = test system: S. pneumoniae Stpn_297-749 Pen R; type: cell-based, Streptococcus pneumoniae; conditions: Table 3, Strain ID F: S. pneumoniae Stpn_297-749 Pen R
In short: as §1

[7] = test system: S. pneumoniae Stpn_Erm 6849; type: cell-based, Streptococcus pneumoniae; conditions: Table 3, Strain ID H: S. pneumoniae Stpn_Erm 6849; unit assumed
In short: as §1

S. pneumoniae Stpn_49619 = type: cell-based, Streptococcus pneumoniae; conditions: Table 3, Strain ID E: S. pneumoniae Stpn_49619
In short: as §1

[8] = test system: S. pneumoniae Stpn_Mef S 3427; type: cell-based, Streptococcus pneumoniae; conditions: Table 3, Strain ID K: S. pneumoniae Stpn_Mef S 3427
In short: as §1

Row | SMILES | MIC (H. influenzae Hain_49247) [µg/mL] | MIC (E. coli Esco_25922) [µg/mL] | MIC (E. faecalis Enfa_29212) | MIC [1] [µg/mL] | MIC [2] [µg/mL] | MIC (S. pyogenes Stpy_8668) | MIC [3] | MIC [4] [µg/mL] | MIC [5] | MIC [6] | MIC [7] [µg/mL] | MIC (S. pneumoniae Stpn_49619) | MIC [8] | MIC ([5]; unit assumed) [µg/mL] | MIC (E. faecalis Enfa_29212; unit assumed) [µg/mL] | MIC ([8]; unit assumed) [µg/mL] | MIC (S. pyogenes Stpy_8668; unit assumed) [µg/mL] | MIC ([3]; unit assumed) [µg/mL] | MIC ([6]; unit assumed) [µg/mL] | MIC (S. pneumoniae Stpn_49619; unit assumed) [µg/mL]
1 | CC[C@H]1OC(=O)[C@H](C)C(=O)[C@H](C)[C@@H](O[C@@H]2O[C@H](C)C[C@H](N(C)C)[C@H]2O)[C@@](C)(OC)C[C@@H](C)C(=O)[C@H](C)[C@@H]2[C@@H]1OC(=O)N2CCCCn1cnc(-c2ccccc2)c1 [Compound 6221] | 3.13 (≈ 3.93 µM) | 25 (≈ 31.4 µM) | ≦0.05 | 0.1 (≈ 0.125 µM) | 0.1 (≈ 0.125 µM) | ≦0.05 | ≦0.05 | 0.4 (≈ 0.502 µM) | ≦0.05 | ≦0.05 | 0.1 (≈ 0.125 µM) | ≦0.05 | ≦0.05 | – | – | – | – | – | – | –
2 | CC[C@H]1OC(=O)[C@H](C)C(=O)[C@H](C)[C@@H](O[C@@H]2O[C@H](C)C[C@H](N(C)C)[C@H]2O)[C@@](C)(OC)C[C@@H](C)C(=O)[C@H](C)[C@@H]2[C@@H]1OC(=O)N2CCCCc1ccnc2ccccc12 [Compound 4711] | 1.56 (≈ 1.99 µM) | 50 (≈ 63.9 µM) | ≦0.05 | 0.1 (≈ 0.128 µM) | 0.1 (≈ 0.128 µM) | ≦0.5 | ≦0.5 | 0.1 (≈ 0.128 µM) | – | ≦0.5 | 6.25 (≈ 7.99 µM) | ≦0.5 | ≦0.5 | 0.2 (≈ 0.256 µM) | – | – | – | – | – | –
3 | CC[C@H]1OC(=O)[C@H](C)C(=O)[C@H](C)[C@@H](O[C@@H]2O[C@H](C)C[C@H](N(C)C)[C@H]2O)[C@@](C)(OC)C[C@@H](C)C(=O)[C@H](C)[C@H]2N(CCCCn3cnc4ccccc43)C(=O)O[C@]12CC [Compound 7282] | 3.13 (≈ 3.92 µM) | 12.5 (≈ 15.6 µM) | – | 0.2 (≈ 0.25 µM) | 0.4 (≈ 0.501 µM) | ≦0.05 | ≦0.05 | 0.4 (≈ 0.501 µM) | – | ≦0.05 | 0.78 (≈ 0.976 µM) | ≦0.05 | – | 0.2 (≈ 0.25 µM) | 0.1 (≈ 0.125 µM) | 0.1 (≈ 0.125 µM) | – | – | – | –
4 | CC[C@H]1OC(=O)[C@H](C)C(=O)[C@H](C)[C@@H](O[C@@H]2O[C@H](C)C[C@H](N(C)C)[C@H]2O)[C@@](C)(OC)C[C@@H](C)C(=O)[C@H](C)[C@H]2N(CCCCn3cnc(-c4cccnc4)c3)C(=O)O[C@]12CC [Compound 7280] | 6.25 (≈ 7.57 µM) | 25 (≈ 30.3 µM) | – | 0.2 (≈ 0.242 µM) | 0.2 (≈ 0.242 µM) | ≦0.05 | ≦0.05 | 0.4 (≈ 0.484 µM) | ≦0.05 | ≦0.05 | 0.4 (≈ 0.484 µM) | ≦0.05 | – | – | 0.1 (≈ 0.121 µM) | 0.1 (≈ 0.121 µM) | – | – | – | –
5 | CC[C@H]1OC(=O)[C@H](C)C(=O)[C@H](C)[C@@H](O[C@@H]2O[C@H](C)C[C@H](N(C)C)[C@H]2O)[C@@](C)(OC)C[C@@H](C)C2=N[C@@H](C)CN3C(=O)O[C@H]1[C@H]3[C@H]2C [Compound 6223] | > 50 | 50 (≈ 78.4 µM) | – | 3.13 (≈ 4.91 µM) | 1.56 (≈ 2.45 µM) | – | – | 0.78 (≈ 1.22 µM) | – | – | > 50 | – | – | > 50 | 0.78 (≈ 1.22 µM) | 0.4 (≈ 0.627 µM) | 0.2 (≈ 0.314 µM) | 0.2 (≈ 0.314 µM) | 0.2 (≈ 0.314 µM) | 0.2 (≈ 0.314 µM)
6 | CC[C@H]1OC(=O)[C@H](C)[C@@H](O[C@H]2C[C@@](C)(OC)[C@@H](O)[C@H](C)O2)[C@H](C)[C@@H](O[C@@H]2O[C@H](C)C[C@H](N(C)C)[C@H]2O)[C@](C)(OC)C[C@@H](C)C(=O)[C@H](C)[C@@H](O)[C@]1(C)O [Clar., clarithromycin, reference compound] | 12.5 (≈ 16.7 µM) | 50 (≈ 66.8 µM) | – | 0.2 (≈ 0.267 µM) | 0.2 (≈ 0.267 µM) | ≦0.05 | ≦0.05 | 6.25 (≈ 8.36 µM) | – | ≦0.05 | > 50 | ≦0.05 | – | > 50 | 0.78 (≈ 1.04 µM) | 1.56 (≈ 2.09 µM) | – | – | – | –
7 | CC[C@H]1OC(=O)[C@H](C)C(=O)[C@H](C)[C@@H](O[C@@H]2O[C@H](C)C[C@H](N(C)C)[C@H]2O)[C@@](C)(OC)C[C@@H](C)C(=O)[C@H](C)[C@H]2NC(=O)O[C@@H]21 [Compound 4266] | 25 (≈ 41.8 µM) | > 50 | – | 3.13 (≈ 5.23 µM) | 3.13 (≈ 5.23 µM) | – | ≦0.05 | 0.2 (≈ 0.334 µM) | – | ≦0.05 | > 50 | – | – | > 50 | 1.56 (≈ 2.61 µM) | 0.1 (≈ 0.167 µM) | 0.1 (≈ 0.167 µM) | – | – | 0.2 (≈ 0.334 µM)
